SMILES strings stand for the structures. Structures can show the parent of a compound that is named as a salt.

For this test, the target named is T1, human V1a receptor (Homo sapiens, UniProt P37288).
T1 construct: expressed in transfected cells; host or cells: HEK293 cells, transiently transfected; cell membranes prepared
T1 sequence (P37288 whole entry): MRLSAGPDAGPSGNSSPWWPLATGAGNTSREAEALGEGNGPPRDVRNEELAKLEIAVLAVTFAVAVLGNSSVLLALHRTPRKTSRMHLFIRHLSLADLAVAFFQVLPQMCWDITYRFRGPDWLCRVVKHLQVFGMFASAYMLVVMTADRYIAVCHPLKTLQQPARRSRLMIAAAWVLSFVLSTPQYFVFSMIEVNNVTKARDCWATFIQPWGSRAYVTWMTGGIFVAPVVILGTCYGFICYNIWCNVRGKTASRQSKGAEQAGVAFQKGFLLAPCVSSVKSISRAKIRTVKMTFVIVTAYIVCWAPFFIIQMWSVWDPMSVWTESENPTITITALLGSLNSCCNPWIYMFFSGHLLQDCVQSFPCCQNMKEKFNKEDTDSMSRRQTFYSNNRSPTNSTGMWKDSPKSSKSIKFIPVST
Kind of test: human V1a receptor binding study (3H-Vasopressin, SPA beads, HEK293 membranes). As to conditions: membranes of HEK293 cells transiently transfected with human V1a receptor; 3H-Vasopressin; Ki calculated using the Cheng-Prussoff equation; read-out: pKi (hV1a) (converted). Here is the method: The human V1a receptor was cloned by RT-PCR from total human liver RNA. The coding sequence was subcloned in an expression vector after sequencing to confirm the identity of the amplified sequence. […] Cell membranes were prepared from HEK293 cells transiently transfected with the expression vector and grown in 20 liter fermenters with the following protocol.
50 g of cells are resuspended in 30 ml freshly prepared ice cold Lysis buffer (50 mM HEPES, 1 mM EDTA, 10 mM magnesium dichloride adjusted to pH=7.4+complete cocktail of protease inhibitor (Roche Diagnostics)). Homogenized with Polytron for 1 min and sonicated on ice for 2×2 minutes at 80% intensity (Vibracell sonicator). The preparation is centrifuged 20 min at 500 g at 4° C., the pellet is discarded and the supernatant centrifuged 1 hour at 43,000 g at 4° C. (19,000 rpm). The pellet is resuspended in 12.5 ml Lysis buffer+12.5 ml Sucrose 20% and homogenized using a Polytron for 1-2 min. The protein concentration is determined by the Bradford method and aliquots are stored at −80° C. until use. For binding studies 60 mg Yttrium silicate SPA beads (Amersham) are mixed with an aliquot of membrane in binding buffer (50 mM Tris, 120 mM sodium chloride, 5 mM potassium chloride, 2 mM Calcium dichloride, 10 mM magnesium dichloride) for 15 minutes with mixing. 50 μl of bead/membrane mixture is then added to each well of a 96 well plate, followed by 50 μl of 4 nM 3H-Vasopressin (American Radiolabeled Chemicals). For total binding measurement 100 μl of binding buffer are added to the respective wells, for non-specific binding 100 μl of 8.4 mM cold vasopressin and for compound testing 100 μl of a serial dilution of each compound in 2% dimethyl sulfoxide. The plate is incubated 1 h at room temperature, centrifuged 1 min at 1000 g and counted on a Packard Top-Count. Non-specific binding counts are subtracted from each well and data is normalized to the maximum specific binding set at 100%. To calculate an IC 50 the curve is fitted using a non-linear regression model (XLfit) and the Ki is calculated using the Cheng-Prussoff equation.
Take `CC(CC(F)(F)F)O[C@H]1CC[C@H](c2nnc3n2-c2ccc(Cl)cc2CNC3)CC1` (mixture of isomers) [Example 55, (RS)-trans-8-Chloro-1-[4-(3,3,3-trifluoro-1-methyl-propoxy)-cyclohexyl]-5,6-dihydro-4H-2,3,5,10b-tetraaza-benzo[e]azulene hydrochloride]: the Ki is 75.9 nM.

On to `CC(CC(F)(F)F)O[C@H]1CC[C@H](c2nnc3n2-c2ccc(Cl)cc2CN(C)C3)CC1` (mixture of isomers) [Example 56, (RS)-trans-8-Chloro-5-methyl-1-[4-(3,3,3-trifluoro-1-methyl-propoxy)-cyclohexyl]-5,6-dihydro-4H-2,3,5,10b-tetraaza-benzo[e]azulene], for which the Ki was 6.76 nM. Consider `CC[C@H](C)O[C@H]1CC[C@H](c2nnc3n2-c2ccc(Cl)cc2CN(C)C3)CC1` (single isomer, unassigned) [Example 28, (+)-trans-1-(4-sec-Butoxy-cyclohexyl)-8-chloro-5-methyl-5,6-dihydro-4H-2,3,5,10b-tetraaza-benzo[e]azulene], for which the Ki is 1.58 nM.

For `CC[C@@H](C)O[C@H]1CC[C@H](c2nnc3n2-c2ccc(Cl)cc2CN(C)C3)CC1` (single isomer, unassigned) [Example 29, (−)-trans-1-(4-sec-Butoxy-cyclohexyl)-8-chloro-5-methyl-5,6-dihydro-4H-2,3,5,10b-tetraaza-benzo[e]azulene], the Ki was 1.58 nM. With `CC(C)(C)OC(=O)N1Cc2cc(Cl)ccc2-n2c(nnc2[C@H]2CC[C@H](OC3CCCC3)CC2)C1` (stereo in doubt) [Example 36, trans-8-Chloro-1-(4-cyclopentyloxy-cyclohexyl)-4H,6H-2,3,5,10b-tetraaza-benzo[e]azulene-5-carboxylic acid tert-butyl ester], the Ki was 3.24 nM. For `COC[C@H](C)O[C@H]1CC[C@H](c2nnc3n2-c2ccc(Cl)cc2CN(C)C3)CC1` (stereo in doubt) [Example 48, (+)-trans-8-Chloro-1-[4-(2-methoxy-1-methyl-ethoxy)-cyclohexyl]-5-methyl-5,6-dihydro-4H-2,3,5,10b-tetraaza-benzo[e]azulene], the Ki is 47.9 nM.

With `COC[C@@H](C)O[C@H]1CC[C@H](c2nnc3n2-c2ccc(Cl)cc2CN(C)C3)CC1` (stereo in doubt) [Example 49, (−)-trans-8-Chloro-1-[4-(2-methoxy-1-methyl-ethoxy)-cyclohexyl]-5-methyl-5,6-dihydro-4H-2,3,5,10b-tetraaza-benzo[e]azulene], the Ki was 5.5 nM. As to `CO[C@H]1CC[C@@H](c2nnc3n2-c2ccc(Cl)cc2CN(C)C3)CC1` [Example 1, cis-8-Chloro-1-(4-methoxy-cyclohexyl)-5-methyl-5,6-dihydro-4H-2,3,5,10b-tetraaza-benzo[e]azulene], the Ki was 93.3 nM. Take `CCO[C@H]1CC[C@H](c2nnc3n2-c2ccc(Cl)cc2CN(C(=O)OC(C)(C)C)C3)CC1` [Example 2, trans-8-Chloro-1-(4-ethoxy-cyclohexyl)-4H,6H-2,3,5,10b-tetraaza-benzo[e]azulene-5-carboxylic acid tert-butyl ester]: the Ki was 2.4 nM. For `CCO[C@H]1CC[C@H](c2nnc3n2-c2ccc(Cl)cc2CNC3)CC1` [Example 3, trans-8-Chloro-1-(4-ethoxy-cyclohexyl)-5,6-dihydro-4H-2,3,5,10b-tetraaza-benzo[e]azulene hydrochloride], the Ki is 63.1 nM. Regarding `CCO[C@H]1CC[C@H](c2nnc3n2-c2ccc(Cl)cc2CN(C)C3)CC1` [Example 4, trans-8-Chloro-1-(4-ethoxy-cyclohexyl)-5-methyl-5,6-dihydro-4H-2,3,5,10b-tetraaza-benzo[e]azulene], the Ki is 6.76 nM. For the compound `CCO[C@H]1CC[C@@H](c2nnc3n2-c2ccc(Cl)cc2CN(C(=O)OC(C)(C)C)C3)CC1` [Example 5, cis-8-Chloro-1-(4-ethoxy-cyclohexyl)-4H,6H-2,3,5,10b-tetraaza-benzo[e]azulene-5-carboxylic acid tert-butyl ester], the Ki is 14.1 nM. `CCO[C@H]1CC[C@@H](c2nnc3n2-c2ccc(Cl)cc2CNC3)CC1` [Example 6, cis-8-Chloro-1-(4-ethoxy-cyclohexyl)-5,6-dihydro-4H-2,3,5,10b-tetraaza-benzo[e]azulene hydrochloride]: the Ki was 891 nM. On to `CCO[C@H]1CC[C@@H](c2nnc3n2-c2ccc(Cl)cc2CN(C)C3)CC1` [Example 7, cis-8-Chloro-1-(4-ethoxy-cyclohexyl)-5-methyl-5,6-dihydro-4H-2,3,5,10b-tetraaza-benzo[e]azulene], for which the Ki is 55 nM. The same measure for `CC(C)O[C@H]1CC[C@H](c2nnc3n2-c2ccc(Cl)cc2CN(C(=O)OC(C)(C)C)C3)CC1` [Example 8, trans-8-Chloro-1-(4-isopropoxy-cyclohexyl)-4H,6H-2,3,5,10b-tetraaza-benzo[e]azulene-5-carboxylic acid tert-butyl ester]: 1.29 nM. Regarding `CC(C)O[C@H]1CC[C@H](c2nnc3n2-c2ccc(Cl)cc2CNC3)CC1` [Example 9, trans-8-Chloro-1-(4-isopropoxy-cyclohexyl)-5,6-dihydro-4H-2,3,5,10b-tetraaza-benzo[e]azulene hydrochloride], the Ki is 17.4 nM. Regarding `CC(C)O[C@H]1CC[C@H](c2nnc3n2-c2ccc(Cl)cc2CN(C)C3)CC1` [Example 10, trans-8-Chloro-1-(4-isopropoxy-cyclohexyl)-5-methyl-5,6-dihydro-4H-2,3,5,10b-tetraaza-benzo[e]azulene], the Ki is 2.82 nM. As for `CC(C)O[C@H]1CC[C@H](c2nnc3n2-c2ccc(Cl)cc2CN(S(C)(=O)=O)C3)CC1` [Example 11, trans-8-Chloro-1-(4-isopropoxy-cyclohexyl)-5-methanesulfonyl-5,6-dihydro-4H-2,3,5,10b-tetraaza-benzoazulene], the Ki is 1.1 nM.

With `CC(C)O[C@H]1CC[C@H](c2nnc3n2-c2ccc(Cl)cc2CN(CCO)C3)CC1` [Example 12, trans-2-[8-Chloro-1-(4-isopropoxy-cyclohexyl)-4H,6H-2,3,5,10b-tetraaza-benzoazulen-5-yl]-ethanol], the Ki is 2.29 nM.

For the compound `CC(C)O[C@H]1CC[C@H](c2nnc3n2-c2ccc(Cl)cc2CN(C(C)C)C3)CC1` [Example 13, trans-8-Chloro-1-(4-isopropoxy-cyclohexyl)-5-isopropyl-5,6-dihydro-4H-2,3,5,10b-tetraaza-benzoazulene], the Ki is 1.51 nM.

As for `CC(C)O[C@H]1CC[C@H](c2nnc3n2-c2ccc(Cl)cc2CN(S(=O)(=O)N(C)C)C3)CC1` [Example 14, trans-8-Chloro-1-(4-isopropoxy-cyclohexyl)-4H,6H-2,3,5,10b-tetraaza-benzoazulene-5-sulfonic acid dimethylamide], the Ki is 1 nM. With `CC(C)O[C@H]1CC[C@H](c2nnc3n2-c2ccc(Cl)cc2CN(Cc2ccccn2)C3)CC1` [Example 15, trans-8-Chloro-1-(4-isopropoxy-cyclohexyl)-5-pyridin-2-ylmethyl-5,6-dihydro-4H-2,3,5,10b-tetraaza-benzoazulene], the Ki was 1.41 nM.

Consider `CC(=O)OCC(=O)N1Cc2cc(Cl)ccc2-n2c(nnc2[C@H]2CC[C@H](OC(C)C)CC2)C1` [Example 16, trans-Acetic acid 2-[8-chloro-1-(4-isopropoxy-cyclohexyl)-4H,6H-2,3,5,10b-tetraaza-benzoazulen-5-yl]-2-oxo-ethyl ester], for which the Ki was 3.47 nM.

`CC(C)O[C@H]1CC[C@H](c2nnc3n2-c2ccc(Cl)cc2CN(C(=O)CO)C3)CC1` [Example 17, trans-1-[8-Chloro-1-(4-isopropoxy-cyclohexyl)-4H,6H-2,3,5,10b-tetraaza-benzoazulen-5-yl]-2-hydroxy-ethanone]: the Ki is 3.47 nM. For `CC(=O)N1Cc2cc(Cl)ccc2-n2c(nnc2[C@H]2CC[C@H](OC(C)C)CC2)C1` [Example 18, trans-1-[8-Chloro-1-(4-isopropoxy-cyclohexyl)-4H,6H-2,3,5,10b-tetraaza-benzoazulen-5-yl]-ethanone], the Ki is 2.51 nM. Turning to `CC(C)O[C@H]1CC[C@H](c2nnc3n2-c2ccc(F)cc2CN(C(=O)OC(C)(C)C)C3)CC1` [Example 19, trans-8-Fluoro-1-(4-isopropoxy-cyclohexyl)-4H,6H-2,3,5,10b-tetraaza-benzo[e]azulene-5-carboxylic acid tert-butyl ester], the Ki is 3.8 nM.

On to `CC(C)O[C@H]1CC[C@H](c2nnc3n2-c2ccc(F)cc2CNC3)CC1` [Example 20, trans-8-Fluoro-1-(4-isopropoxy-cyclohexyl)-5,6-dihydro-4H-2,3,5,10b-tetraaza-benzo[e]azulene hydrochloride], for which the Ki is 251 nM.

Values taken from US8642590B2, “Alkylcyclohexylethers of dihydrotetraazabenzoazulenes” (Hoffmann-La Roche Inc., priority 2008, dated 2014).
